Reference: patent US11040108B2, “Amino acid- and peptide-steroid conjugates and use thereof” (BRANDEIS UNIVERSITY, priority 2016, dated 2021)
≈ marks a conversion by molar mass, not a printed value. Read-outs that look alike come from different tables or passages of the source.

Key:
[1] = TEM of assemblies in aqueous solution; format: physicochemical; settings: 1.0 wt %; for diameter of assemblies on direct dissolution in water: without ALP, 1b spheres-like vesicle, 2b nanoribbon
Experimental: Sample solution (5 sufficient to cover the grid surface) was placed on the grid. Approximately 10 sec later, sample was rinsed by placing a large drop of the ddH2O on parafilm and allowing the grid to touch the water drop, with the sample-loaded surface facing the parafilm. The grid was tilted and water was gently absorbed from the edge of the grid using a filter paper sliver. This procedure was repeated 3 times. Immediately after rinsing, the staining was conducted by placing a large drop of the uranyl acetate (UA) stain solution on parafilm and allowing the grid to touch the stain solution drop, with the sample-loaded surface facing the parafilm. The grid was tilted and the stain solution was gently absorbed from the edge of the grid using a filter paper sliver. Next, the grid was allowed to dry in air and the grid was examined as soon as possible.
To further understand the inhibitory activity of 1a, transmission electron microscopy (TEM) was used to confirm the EISA of 1b. […] In contrast, uniform nanofibers (diameter of 10±2 nm) formed after the addition of ALP (1 U/mL) into the solution of 1a (FIG. 3B). The resulted nanofibers entangled with each other to result in a viscous solution. […] But the direct dissolution of 2b (1.0 wt %) provided an aqueous solution containing nanoribbon with the diameter of 17±2 nm and in several hundred nanometer length (FIG. 4B). These observations, collectively, confirmed that enzymatic reaction modulated the morphology of the assemblies of the cholesterol conjugates, which partially contributed to the different inhibitory activities of 1a, 1b, 2a, and 2b. That is, being exposed to the cancer cell, 1a (or 2a) turns into 1b (or 2b), a process catalyzed by the extra- or intracellular enzymes of the cancer cells; the resulting 1b (or 2b) self-assembled to form nanoscale assemblies that result in death of the cancer cell.

HeLa cells = test: MTT assay, cytotoxicity against HeLa; format: cell-based, human; settings: for IC50: Homo sapiens, HeLa, 48 h, read-out: IC50 against HeLa cell
Experimental: (§1) HeLa, Saos-2, HS-5, HepG2, T98G, and A2780 cells were purchased from American-type Culture Collection (ATCC, USA). A2780cis cell was purchased from Sigma. HeLa cells, HepG-2 cells, and T98G cells were cultured in MEM Medium supplemented with 10% v/v fetal bovine serum, 100 U/mL penicillin, and 100 μg/mL streptomycin. Saos-2 cells were cultured in McCoy's 5a Medium (for Saos-2) supplemented with 15% v/v fetal bovine serum, 100 U/mL penicillin, and 100 μg/mL streptomycin. HS-5 cells were cultured in Dulbecco's Modified Eagle's medium (DMEM) supplemented with 10% v fetal bovine serum (FBS), 100 U/mL penicillin, and 100 μg/mL streptomycin. A2780cis cells were cultured in RPMI 1640 Medium supplemented with 10% v/v fetal bovine serum, 100 U/mL penicillin, and 100 μg/mL streptomycin (cisplatin only necessary every 2-3 passages). All cells were maintained at 37° C. in a humidified atmosphere of 5% CO2.
(§2) An MTT assay was used to test the cytotoxicity. All different cell lines were seeded in 96-well plates at 1×10^5 cells/well for 24 hours followed by removal of the culture medium and subsequent addition of culture medium containing different concentrations of the precursors. At designated time (24/48/72 hours), 10 μL MTT solution (5 mg/mL) was added to each well and incubated at 37° C. for another 4 hours, and then 100 μL of SDS-HCl solution was added to stop the reduction reaction and dissolve the purple formazan. The absorbance of each well at 595 nm was measured by a multimode microplate reader. The cytotoxicity assay was performed three times and the average value of the three measurements was taken.
To confirm that assemblies of the cholesterol conjugate are able to inhibit other cancer cell lines, 1a was incubated with HeLa cells, a widely studied malignant cervical cancer cell line.

A2780cis cells = test: MTT assay, cytotoxicity against A2780cis; format: cell-based, human
Experimental: as §1, §2
The activity of conjugate 1a against a platinum-resistant, ovarian cancer cell line (A2780cis) (Behrens et al., “Characterization of a Cis-Diamminedichloroplatinum(Ii)-Resistant Human Ovarian Cancer Cell Line and its Use in Evaluation of Platinum Analogues,” Cancer Res. 47:414 (1987); Masuda et al., “Increased DNA Repair as a Mechanism of Acquired Resistance to Cis-Diamminedichloroplatinum (II) in Human Ovarian Cancer Cell Lines,” Cancer Res. 48:5713 (1988), which are hereby incorporated by reference in their entirety) was first examined. To assess the efficacy of conjugate 1a, the assay was carried out in parallel using the known, clinically used cytotoxic agent, cisplatin.

[2] = system: HeLa, A2780cis, OVASHO, MES-SA/dx5 and Saos-2 cells; test: NBD visualization of nano-aggregates in cancer cell lines (CLSM); format: cell-based; settings: 25 μM; 11a in all five cell lines, 11b in OVASHO and MES-SA/dx5
Experimental: Different cancer cells at the density of 1.5×10^5 were seeded onto 3.5 cm confocal dish. After the growth of cells in cell incubator for 24 h, 11a (or 11b) at 25 μM was added to the above solution with completed medium. At designated times, PBS was used to wash cells 3 times for 1 minute. Hoechst 33342 was used to stain cell nucleus for 10 minutes, and cells were then washed using live cell imaging solution 3 times for 1 minute. Cells were maintained in live cell imaging solution, and CLSM was carried out immediately. The excitation of wavelength was 488 nm, and the emission was 500 nm to 596 nm.

[3] = system: HS-5 cell line (human bone marrow stroma cell line); test: MTT assay, cell viability of HS-5; format: cell-based; settings: 12.5 μM, 48 hours (FIG. 5A)
Experimental: as §1, §2
To verify the selectivity of 1a against cancer cells, the HS-5 cell line (human bone marrow stroma cell line) was used; HS-5 hardly overexpresses ALP on cell surface. […] To further confirm that ALP on cell surface (i.e., as an ectophosphatase) contributed to the inhibitory activity of 1a, A2780cis were incubated with 1a and ALP (1 U/mL).
Additional cell viability assays were carried out using conjugates 1a and 1b, optionally with 3, against HepG2 human liver carcinoma cells, Saos-2 osteosarcoma cells, T98G glioblastoma cells, HS-5 (normal bone marrow stromal cells), A2780 ovarian cancer cells (parental line to A2780cis), and Kuramochi ovarian cancer cells. Conjugate 1a was particularly effective against ovarian and cervical cancer cells.

A2780 cell line = test: Cell viability of unstimulated or selected A2780 cell line (acquired resistance); format: cell-based; settings: after five weeks treatment with gradually increased concentrations; 24, 48, 72 h
Experimental: as §2
The activity of 1a against non-drug resistant cancer cells was assessed using the A2780 cell line.

[4] = 48 hours (FIG. 9A), unit inferred
[5] = read-out: IC50 against A2780cis, 72 hours
[6] = concentration of 100 μM (FIG. 10)

CC(C)CCC[C@@H](C)C1CC[C@H]2[C@@H]3CC=C4CC(OC(=O)NC(Cc5ccc(O)cc5)C(=O)O)CC[C@]4(C)[C@H]3CC[C@]12C (stereo partly drawn) [2b, Cholesterol-L-Tyr]
diameter of assemblies on direct dissolution in water [1]: 17±2 nm | IC50 (HeLa cells; [4]): 59.2 µM | IC50 (A2780cis cells; [5]): 36 µM

CC(C)CCC[C@@H](C)C1CC[C@H]2[C@@H]3CC=C4CC(OC(=O)NC(Cc5ccc(OP(=O)(O)O)cc5)C(=O)N[C@H](CCCCNc5ccc([N+](=O)[O-])c6nonc56)C(=O)O)CC[C@]4(C)[C@H]3CC[C@]12C (stereo partly drawn) [11a, cholesterol-(phospho)y-(NBD)k]
presence of nano-aggregates in or on treated cells [2]: confirmed presence of nano-aggregates

CC(C)CCC[C@@H](C)C1CC[C@H]2[C@@H]3CC=C4CC(OC(=O)NC(Cc5ccc(O)cc5)C(=O)O)CC[C@]4(C)[C@H]3CC[C@]12C (stereo partly drawn) [1b, Cholesterol-D-Tyr]
diameter of assemblies on direct dissolution in water [1]: 25±2 nm | IC50 (HeLa cells): 89.7 µM | cell viability / proliferation of HS-5 [3]: hardly inhibited | cell viability / proliferation of A2780cis (A2780cis cells; 12.5 μM, 48 hours (FIG. 5A)): hardly inhibited | IC50 (A2780cis cells; Homo sapiens, A2780cis, 72 h, read-out: IC50 against A2780cis, 72 hours): 50 µM

N.N.[Cl][Pt][Cl] [cisplatin, reference compound]
inhibition of A2780 and acquired drug resistance (A2780 cell line): caused platinum-resistance | IC50 against A2780cis (A2780cis cells; 48 hours): 21.2 µg/mL | IC50 against A2780cis (A2780cis cells; 72 hours): 12.2 µg/mL | IC50 (A2780cis cells; 72 hours, read-out: IC50 against A2780cis): 41 µM

CC(C)CCC[C@@H](C)C1CC[C@H]2[C@@H]3CC=C4CC(OC(=O)NC(Cc5ccc(OP(=O)(O)O)cc5)C(=O)O)CC[C@]4(C)[C@H]3CC[C@]12C (stereo partly drawn) [2a, Cholesterol-(phospho)L-Tyr]
morphology in aqueous solution without ALP ([1]; pH 7.4): disorder aggregates | diameter of nanofibers formed after addition of ALP ([1]; pH 7.4, ALP 1 U/mL, 24 hours): 15±2 nm | IC50 (HeLa cells; [4]): 43.8 µM | IC50 against A2780cis (A2780cis cells; 72 hours): 15.2 µg/mL (≈ 22.6 µM) | IC50 (A2780cis cells; [5]): 22 µM

CC(C)CCC[C@@H](C)C1CC[C@H]2[C@@H]3CC=C4CC(OC(=O)NC(Cc5ccc(O)cc5)C(=O)N[C@H](CCCCNc5ccc([N+](=O)[O-])c6nonc56)C(=O)O)CC[C@]4(C)[C@H]3CC[C@]12C (stereo partly drawn) [11b, cholesterol-y-(NBD)k]
presence of nano-aggregates in or on treated cells [2]: confirmed presence of nano-aggregates

CC(C)CCC[C@@H](C)C1CC[C@H]2[C@@H]3CC=C4CC(OC(=O)NC(Cc5ccccc5)C(=O)O)CC[C@]4(C)[C@H]3CC[C@]12C (stereo partly drawn) [compound 3, Cholesterol-D-Phe]
effect on HeLa cells (HeLa cells; [6]): innocuous | effect on A2780cis cells (A2780cis cells; [6]): innocuous
